Experimental data published in US10787650B2, “Artificial bioluminescent enzymes” (NATIONAL INSTITUTE OF ADVANCED INDUSTRIAL SCIENCE AND …, priority 2015, dated 2020).
Entries after “also recorded” stand apart in the source; their conditions may differ.

Experiments:
ALuc16 [1] = experiment: Circular dichroism (CD) measurement of metal cation-mixed ALuc16; settings: varying cation concentrations
Description: Circular dichroism (CD) measurement was further conducted for reasoning the cation-driven degradation of ALuc16 activities (FIG. 9). Samples were prepared by mixing varying concentrations of Pb(II) or Al(III) with column-purified and dialyzed ALuc16, and were measured with a CD spectrometer (JASCO, Japan) after preparation.

OLuc = OLuc (Oplophorus gracilirostris, UniProt Q9GV45); settings: cited from earlier work
Sequence of OLuc (Q9GV45 28-196): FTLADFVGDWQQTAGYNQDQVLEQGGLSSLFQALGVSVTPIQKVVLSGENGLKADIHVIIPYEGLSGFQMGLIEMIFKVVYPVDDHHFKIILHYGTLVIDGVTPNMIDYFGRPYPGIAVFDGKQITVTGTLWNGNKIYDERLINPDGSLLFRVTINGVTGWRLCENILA

TPv2.4 = TPv2.4 (Homo sapiens, UniProt P42345); settings: for luminescence intensity sustainability: compared with native coelenterazine; for bioluminescence intensity with TPv2.4: lysate of rapamycin-stimulated COS-7 cells, substrate 0.1 μg/μL
Sequence of TPv2.4 (P42345 with tags, fused parts or gaps): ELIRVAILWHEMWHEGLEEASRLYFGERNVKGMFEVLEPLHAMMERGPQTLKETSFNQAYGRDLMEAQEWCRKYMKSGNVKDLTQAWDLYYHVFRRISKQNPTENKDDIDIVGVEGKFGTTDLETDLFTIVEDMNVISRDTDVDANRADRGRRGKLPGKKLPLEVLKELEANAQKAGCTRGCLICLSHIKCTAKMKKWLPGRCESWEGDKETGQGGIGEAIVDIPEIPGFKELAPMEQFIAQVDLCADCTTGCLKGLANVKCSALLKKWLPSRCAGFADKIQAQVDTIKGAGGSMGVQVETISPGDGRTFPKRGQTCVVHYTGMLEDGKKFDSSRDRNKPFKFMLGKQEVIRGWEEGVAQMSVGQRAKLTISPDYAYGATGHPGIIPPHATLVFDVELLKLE
Description: COS-7 cells were cultured in a 96-well plate, and the cells were transiently transfected with the pcDNA3.1(+) vector encoding TP2.4. After that, the cells were cultured for 2 days. After being stimulated with 10^−6 M rapamycin for 4 hours, the cells in each well were lysed with a cell lysis buffer (50 μl) for 20 minutes. After that, an aliquot of the lysate (10 μL) was transferred to a 96-well transparent-bottom plate. Separately, about 10 kinds of coelenterazine analogs (substrates, 25 μg) were dissolved in 25 μL of ethanol. The solution was further 10-fold diluted with an assay buffer (Promega) to prepare a solution having a final concentration of 0.1 μg/μL. The solution was named substrate solution. 50 μL of the substrate solution was simultaneously introduced into the lysate solution on the plate using a multipipette, and the plate was immediately moved into an image analyzer (LAS-4000, FujiFilm), followed by optical measurement every 5 minutes in a 30-second integration time mode.
The coelenterazine analogs subjected to the measurement in this research were 9 kinds from “Coelenterazine Sampler Kit” of Promokine, i.e., native coelenterazine (nCTZ), coelenterazine h (CTZ h), coelenterazine f (CTZ f), coelenterazine i (CTZ i), coelenterazine n (CTZ n), coelenterazine cp (CTZ-cp), coelenterazine hcp (CTZ hcp), coelenterazine fcp (CTZ fcp), and coelenterazine ip (CTZ ip).

ALuc16 [2] = experiment: Metal cation-driven optical intensities of ALuc16 (purified enzyme); format: biochemical; settings: metal cation-free Tris-HCl buffer (pH 8.2, 0.05 M), nCTZ
Description: The metal cation-driven optical properties were estimated with ALuc16 (FIG. 6). A metal cation-free sample of ALuc16 was prepared beforehand as follows: we first generated a DNA construct of ALuc16 carrying a Strep-II tag at the C-terminus via PCR. The construct was then cloned into a pOPTHM vector (providing a cleavable N-terminal His6-MBP tag), and expressed in the bacterial strain Shuffle T7 Express (New England Biolabs) with 0.3 mM IPTG induction. […] The lysate was centrifuged at 18,000 rpm for 40 minutes, and then the supernatant was passed over a 5 mL HisTrap HP column (GE Healthcare). […] The eluted sample was dialyzed to a metal-cation-free Tris-HCl buffer (0.05 M, pH 8.2) at 4° C. for 24 hours, and finally adjusted to a concentration of 1 mg/ml by dilution. […] Meanwhile, the corresponding substrate solution carrying nCTZ (Promega) was diluted 100-fold with the cation-free Tris-HCl buffer (Solution B). 50 μL of Solution B was simultaneously injected into Solution A in the 96-well plate with a multichannel micropipette (Gilson). The microplate was immediately moved to an image analyzer (LAS-4000, FujiFilm) equipped with a cooled charge-coupled device (CCD) camera, and the optical intensities were simultaneously estimated in a precision mode. The measurements were conducted in triplicate (n=3). The optical images were analyzed with Multi Gauge V3.2 (FujiFilm). […] The experiment was conducted by the same method as that of FIG. 6. In the inset, the optical image taken with LAS-4000 (FujiFilm) is shown.

ALuc16 [3] = experiment: Cation-driven long-term stability of optical intensities of ALuc16; format: biochemical; settings: 60 minutes after substrate injection
Description: The long-term stability of optical intensities was estimated by the same method as that of FIG. 6(A) (FIG. 8(A)). The microplate was placed in the chamber of LAS-4000, and the optical intensities were monitored every 5 minutes, after substrate injection, for a duration of 60 minutes.

Fridericia luciferase = settings: cited from earlier work
[4] = Luminescence activity of novel artificial bioluminescent enzymes (COS-7 cell lysate); format: biochemical, African green monkey; settings: COS-7 lysate, native coelenterazine
Description: African green monkey kidney-derived COS-7 cells were cultured using a 96-well microplate. The COS-7 cells were grown until occupying 90% of the bottom-surface area of the culture plate, and, as shown in FIG. 19 and FIG. 20, were each transiently transfected with a pcDNA 3.1(+) vector (Invitrogen) encoding each luminescent enzyme with a lipofection reagent (TransIT-LT1, Mirus). After that, the cells were further cultured for about 1 day. After the culture, cell lysates were prepared using a cell lysis agent (Lysis buffer, Promega), and 5 μL each of the cell lysates was taken from each well and transferred to a 96-well microplate for measurement. An assay buffer (50 μL) containing native coelenterazine was simultaneously added to each well using a multichannel pipette. Immediately after the addition of the assay buffer, the microplate was moved into the black box of an image analyzer (LAS-4000, FujiFilm), and luminescence images were measured with a CCD camera (FIG. 19 and FIG. 20).

[5] = Proton-dependent optical intensities and optical stability of ALucs (COS-7 cell lysate); format: biochemical, African green monkey; settings: for elevation of optical intensities at pH 7 as compared to pH 6: COS-7 lysate, nCTZ; for intensities as share of the initial intensities 20 minutes after substrate injection: pH 9, coelenterazine analog
Description: The proton-driven optical intensities of ALucs were calculated to help elucidate the proton-bioluminescence relationship (FIG. 4). […] The cells were cultured and lysed by the same method as that of FIG. 2(B). Then, 10 μL of the lysates in the plate were simultaneously mixed with 40 µL of the substrate solution, which was prepared by mixing a native coelenterazine (nCTZ) stock (FIG. 4(B)) with an aliquot of the universal buffer with the pH ranging from 4 to 9 (final concentration of the substrate: 0.1 mg/ml). Immediately after the substrate injection, the plate was moved into an image analyzer (LAS-4000, FujiFilm), and relative optical intensities were integrated for 30 seconds. The time course of the intensities was estimated every 5 minutes for 20 minutes (FIG. 4(D)).

Molecule: [Cl][Al]([Cl])[Cl] [Al(III)]
- effect on structure of ALuc16 (CD spectra, 222 nm) (ALuc16 [1]): α-helical portion is gradually decreased; also recorded: destroy the tertiary structure of ALuc16; also recorded: the structure of ALuc16 is denatured

Molecule: [Cl][Cd][Cl] [Cd(II)]
- effect on optical intensity of OLuc (OLuc): inhibited the optical intensity

Molecule: coelenterazine n [CTZ n]
- initial luminescence intensity retained (TPv2.4; 20 minutes after substrate injection): about 60%
- luminescence intensity sustainability (TPv2.4): longer than that of native coelenterazine

Molecule: Oc1ccc(-c2cn3c(O)c(Cc4ccc(F)cc4)nc3c(CC3CCCC3)n2)cc1 [CTZ fcp, coelenterazine fcp]
- bioluminescence intensity with TPv2.4 (TPv2.4): weak luminescence intensities

Molecule: [Cl-].[Cl-].[Co+2] [Co(II)]
- effect on optical intensities (activities) of ALuc16 (ALuc16 [2]): suppress

Molecule: Cr(VI)
- elevation of ALuc16 activities / optical intensities (ALuc16 [2]): about 2 times

Molecule: coelenterazine ip [CTZ ip]
- bioluminescence intensity with TPv2.4 (TPv2.4): weak luminescence intensities

Molecule: coelenterazine f [CTZ f]
- bioluminescence intensity with TPv2.4 (TPv2.4): strongest bioluminescence intensities

Molecule: [K+] [K^+]
- effect on optical intensities (activities) of ALuc16 (ALuc16 [2]): little effect

Molecule: N [NH4^+]
- effect on optical intensities (activities) of ALuc16 (ALuc16 [2]): little effect

Molecule: O=c1c(Cc2ccc(I)cc2)nc2c(Cc3ccccc3)[nH]c(-c3ccc(O)cc3)cn1-2 [CTZ i, coelenterazine i]
- luminescence half-life from substrate injection (TPv2.4): about 15 minutes
- luminescence intensity sustainability (TPv2.4): longer than that of native coelenterazine

Molecule: coelenterazine h [CTZ h]
- bioluminescence intensity with TPv2.4 (TPv2.4): strongest bioluminescence intensities

Molecule: [Cl-].[Cl-].[Mg+2] [Mg(II)]
- effect on long-term stability of bioluminescence intensities (ALuc16 [3]): seldom influences the long-term stability
- effect on activities of Fridericia luciferase (Fridericia luciferase): elevate

Molecule: [Cl-].[Cl-].[Zn+2] [Zn(II)]
- effect on optical intensity of OLuc (OLuc): inhibited the optical intensity
- effect on optical intensities (activities) of ALuc16 (ALuc16 [2]): suppress

Molecule: [Li+] [Li^+]
- effect on optical intensities (activities) of ALuc16 (ALuc16 [2]): little effect

Molecule: native coelenterazine [nCTZ]
- bioluminescence intensity with TPv2.4 (TPv2.4): strongest bioluminescence intensities

Molecule: [Cl][Mn][Cl] [Mn(II)]
- effect on optical intensities (activities) of ALuc16 (ALuc16 [2]): boosting effect with Mn(II) was not observed
- effect on activities of Fridericia luciferase (Fridericia luciferase): elevate

Molecule: [Cl][Cu][Cl] [Cu(II)]
- effect on optical intensity of OLuc (OLuc): inhibited the optical intensity
- effect on optical intensities (activities) of ALuc16 (ALuc16 [2]): suppress

Molecule: Oc1ccc(-c2cn3c(O)c(Cc4ccccc4)nc3c(CC3CCCC3)n2)cc1 [CTZ hcp, coelenterazine hcp]
- bioluminescence intensity with TPv2.4 (TPv2.4): weak luminescence intensities

Molecule: Oc1ccc(Cc2nc3c(CC4CCCC4)nc(-c4ccc(O)cc4)cn3c2O)cc1 [CTZ cp, coelenterazine cp]
- bioluminescence intensity with TPv2.4 (TPv2.4): weak luminescence intensities

Molecule: [Na+] [Na^+]
- effect on optical intensities (activities) of ALuc16 (ALuc16 [2]): little effect

B1: ALuc49: artificial luciferase, SEQ ID NO: 9 (protein)
chain: MMGIKVLFALVCLALVQAKPTEDEDEDDIVDVVGNFWAIGVDNDRDFTISADRGKLPGKKLPKEVLIEIEANAKKAGCTRGCLICLSKIKCTAKMKKWLPGRCHSYEGDKDTGQGGIGEPIVDAPEIPGFKDLTPMEQFIAQVDLCADCTTGCLKGLANVKCSALLKKWLPDRCASFADKIQKEVDYIKGLAGS
- luminescence intensities as compared to conventional ALucs (e.g., ALuc16 and ALuc30) [4]: even stronger luminescence intensities

B2: ALuc50: artificial luciferase, SEQ ID NO: 10 (protein)
chain: MMGIKVLFALVCLALVQAKPTEDEDEDDIVDVVGNFWAIGVDNDRDFTISADRGKLPGKKLPKEVLIEIEANAKKAGCTRGCLICLSKIKCTAKMKKWLPGRCHSYEGDKDTGQGGIGEPIVDAPEIPGFKDLTPMEQFIAQVDLCADCTTGCLKGLANVKCSALLKKWLPDRCASFADKIQKEVDFIKGLAGS
- luminescence intensities as compared to conventional ALucs (e.g., ALuc16 and ALuc30) [4]: even stronger luminescence intensities

B3: ALuc47: artificial luciferase, SEQ ID NO: 7 (protein)
chain: MMGIKVLFALVCLALVQAKPTEDEDEDDIVDVVGNFWAIGVDNDRDFTISADRGKLPGKKLPKEVLIEIEANAKKAGCTRGCLICLSKIKCTAKMKKWLPGRCHSYEGDKDTGQGGIGEPIVDAPEIPGFKDLTPMEQFIAQVDLCADCTTGCLKGLANVKCSALLKKWLPDRCASFADKIQKEVGTIKGLLGS
- luminescence intensities as compared to conventional ALucs (e.g., ALuc16 and ALuc30) [4]: relatively low luminescence intensities

B4: ALuc41: artificial luciferase, SEQ ID NO: 2 (protein)
chain: MMGIKVLFALVCLALVQAKPTEDEDEDDIVDVVGNFWAIGVDNDRDFTISADRGKLPGKKLPKEVLIEIEANAKKAGCTRGCLICLSKIKCTAKMKKWLPGRCHSYEGDKDTGQGGIGEPIVDAPEIPGFKDLTPMEQFIAQVDLCADCTTGCLKGLANVKCSALLKKWLPDRCASFADKIQKEVDTIKGLAGS
- luminescence intensities as compared to conventional ALucs (e.g., ALuc16 and ALuc30) [4]: relatively low luminescence intensities

B5: ALuc46: artificial luciferase, SEQ ID NO: 6 (protein)
chain: MMGIKVLFALVCLALVQAKPTEDEDEDDIVDVVGNFWAIGVDNDRDFTISADRGKLPGKKLPKEVLIEIEANAKKAGCTRGCLICLSKIKCTAKMKKWLPGRCHSYEGDKDTGQGGIGEPIVDAPEIPGFKDLTPMEQFIAQVDLCADCTTGCLKGLANVKCSALLKKWLPDRCASFADKIQSEVATIKGLAGS
- luminescence intensities as compared to conventional ALucs (e.g., ALuc16 and ALuc30) [4]: relatively low luminescence intensities

B6: ALuc23: conventional artificial luciferase from the inventor's previous research, SEQ ID NO: 32 (protein)
chain: MMGIKVLFALICFALVQANPTENKDDIDIVGVEGKFGTTDLETDLFTIVEDMNVISRDTDVDANRADRGRRGKLPGKKLPLEVLKELEANAQKAGCTRGCLICLSHIKCTAKMKKWLPGRCESWEGDKETGQGGIGEAIVDIPEIPGFKELAPMEQFIAQVDLCADCTTGCLKGLANVKCSALLKKWLPSRCAGFADKIQAQVDTIKGAGGS
modifications: Synthetic Sequence - ALuc23
- elevation of optical intensities at pH 7 as compared to pH 6 [5]: about 5 fold
- intensities as share of the initial intensities 20 minutes after substrate injection [5]: 41%

B7: ALuc34: conventional artificial luciferase, SEQ ID NO: 35 (protein)
chain: MMGIKVLFALICFALVQANMMDYKDDDDKVGVEGKFGTTDLETDLFTIVEDMNVISRDTDVDANRADRGRRGKLPGKKLPLEVLKELEANAQKAGCTRGCLICLSHIKCTAKMKKWLPGRCESWEGDKETGQGGIGEAIVDIPEIPGFKELAPMEQFIAQVDLCADCTTGCLKGLANVKCSALLKKWLPSRCAGFADKIQAQVDTIKGAGGS
modifications: Synthetic Sequence - ALuc34
- elevation of optical intensities at pH 7 as compared to pH 6 [5]: about 5 fold
- intensities as share of the initial intensities 20 minutes after substrate injection [5]: 60%
